Earlier results as cited in patent US8729024B2, “Targeted delivery of pharmaceutical compounds” (The Resesarch Foundation of State University of New York, priority 2006, dated 2014).

System: animal models of Duchenne muscular dystrophy (DMD), multiple sclerosis, myasthenia gravis, hearing loss and traumatic nerve injury

For `CC(=O)N[C@@H](CC(C)C)C(=O)N[C@@H](CC(C)C)C(=O)N[C@H](C=O)CCCNC(=N)N` [leupeptin], the “therapeutic effect in animal models” value is given as “therapeutic benefit”.
